Data as given in patent US20060052298A1, “Use of stable glutamine derivatives to improve drug absorption” (priority 2002, published 2006).
Read-outs that look alike come from different tables or passages of the source. Blank lines part the entries; values can stand above or below the compound they belong to. Peptide text beside a SMILES is read from it.

Columns and labels:
[1] = 2-hour (peak) antiretroviral drug levels in blood; details: for concentration at 2 h: blood, po, mean 2-hour drug level, oral ARV therapy; for number of patients whose AZT levels did not improve (of eight): 14 patients taking AZT; for number of patients with an increase in their D4T levels / number of patients who did not increase their D4T levels: 15 patients on D4T; for number of patients whose 3TC levels did not improve / number of patients whose 3TC levels improved with therapy: 18 patients on 3TC; for drug levels improved, all ARV drugs including NNRTI and PI / mean percent improvement in antiretroviral drug levels / peak paired NRTI levels improved: after 7 days of study drug
From the text: HUV positive patients on therapy presenting at the Hospital Sao Jose with diarrhea (≧3 stools/day×14 days) and wasting (loss of ≧10% of their body weight) from March 2001 to April 2002, were invited to participate. After informed consent, patients were assigned to one of four equi-nitrogenous blinded study groups including glycine controls (FIG. 1). Group A received 46 gm of oral glycine/day (Spectrum, Gardena, Calif.). Group B received 30 gm of oral glutamine/day (Cambridge Neutraceuticals, Cambridge, Mass.) and 15 gm of glycine, Group C received 4 grams alanyl-glutamine (Degussa/Creanova, Parsippany, N.J.) and 42 gm of glycine and Group D received 44 gm of alanyl-glutamine (Ala-Gln). The 44 gm alanyl-glutamine dose was calculated to contain equimolar glutamine to 30 gm of glutamine, and glycine was added to glutamine and low dose alanyl-glutamine groups to equalize the amount of nitrogen received by all participants.
Antiretroviral drug levels were determined at Tibotec-Virco, Mechelen, Belgium. Peak values were determined for each drug, and drug level ranges supplied by the manufacturer were used to define low levels. Viral genotype was determined by DNA sequencing at Visible Genetics, Suwanee, Ga. […] Two-tailed statistical analyses for comparison of paired values included Student's t-test and ANOVA and expressed as […] the standard deviation. Chi-square test or Fisher Exact test were used to compare proportions.

[2] = tested on: small intestinal epithelial crypt cells (line IEC-6); assay: IEC-6 cell migration after wounding (restitution model); assay type: cell-based; details: IEC-6 cells, 2.5 mmol/liter
From the text: In 1992, McCormack et al. established a model to study the process of cell migration involved in the early restitution of mucosal erosion. […] This model system is used in the present invention in order to show the important effect of stable glutamine derivatives on intestinal epithelial restitution. To investigate the ability of glutamine and stabilized glutamine derivatives to enhance the healing of mucosal tissues, a model system based on the migration of small intestinal epithelial crypt cells (line IEC-6) was used. The small epithelial crypt cell line (IEC-6 cells) was obtained from the American Type Culture Collection (Rockville, Md.). The medium consisted of Dullbecco's modified Eagle medium (DMEM) with 5% heat-inactivated FBS and 10 μg insulin and 50 μg gentamicin sulfate per milliliter. For the experiments, the cells were taken up with 0.25% trypsin plus 2.65 mM EDTA and plated at 6.25×10^4 cell/cm^2 in 35 mm dishes thinly coated with Matrigel according to the manufacturer's instructions. The cells were fed every other day. To initiate migration, the cell layer was scratched with a single razor blade cut to approximately 27 mm in length. The scratch began at the diameter of the dish and extended over an area 7 to 10 mm wide. After the scratch, the cells were washed twice with sterile PBS. Then, medium containing no supplemental substances or medium containing glutamine or alanyl-glutamine (2.5 mmol/liter) was replaced, and the dishes were returned to the incubator. The experiments were carried out in triplicate. After 6 hours, 8 hours, and 24 hours, the dishes were removed from the incubator, and photographed using an inverted phase contrast microscope attached with camera The migration cells in five contiguous 0.1-mm squares were counted at ×100 magnification beginning at the scratch line and extending as far out as the cells had migrated. The counting was done in the area of the highest migration rate by means of an eyepiece reticle.

[3] = tested on: salt and water absorption; details: compared with glucose; cited from earlier work
[4] = tested on: HIV positive patients with diarrhea and wasting; assay: Clinical response by diarrhea frequency and consistency in AIDS patients with diarrhea and wasting; assay type: in vivo, human; details: 7 days; high dose Ala-Gln 44 gm/day; glycine controls 46 gm/day
From the text: Patients were asked daily about the frequency and consistency of their diarrhea and other gastrointestinal complaints including anorexia, vomiting, and abdominal cramping. Changes in frequency of diarrhea was scored as 0 if the total number of stools in the second half of the 9-day study was less than 2 fewer (or greater) than the number in the first half of the study (including the 2 days before study treatment was started); scored as − or +1 if stool frequencies were reduced or increased by 2 to 3, respectively; and − or +2 if the frequencies were reduced or increased by >3, respectively. In addition, consistencies were graded as liquid, soft or formed and scored as 0, 1 or 2 respectively and changes were added to the frequency scores above. Intestinal permeability was measured by urinary excretion of lactulose, mannitol and their ratio as previously described (Lima et al., Am J Gastroenterol 1997; 92(10):1861-1866). Lactulose and mannitol in urine was determined by high performance liquid chromatography (HPLC) and at Great Smokies Diagnostic Laboratory, Asheville, N.C.

[5] = compared with glutamine; cited from earlier work
[6] = tested on: intestinal permeability; details: over 28 days, cited from earlier work
[7] = all study groups together, 18 on 3TC, 15 on D4T, 14 on AZT
[8] = human, controls without diarrhea or wasting
[9] = human, study patients with diarrhea and wasting
[10] = study patients with diarrhea and wasting
[11] = high dose Ala-Gln, control group
[12] = high dose Ala-Gln, Gln, glycine
[13] = high dose Ala-Gln 44 gm/day, Gln 30 gm/day (+15 gm glycine), glycine 46 gm/day
[14] = high dose Ala-Gln 44 gm/day, Gln 30 gm/day (+15 gm glycine), glycine controls 46 gm/day
[15] = low dose Ala-Gln 4 grams/day (+42 gm glycine)

Structure (SMILES): Cc1cn([C@H]2C[C@H](N=[N+]=[N-])[C@@H](CO)O2)c(=O)[nH]c1=O [AZT, zidovudine, reference compound]
- number of patients whose level of this ARV drug improved with therapy [1, 7]: six

Structure (SMILES): C[C@H](N)C(=O)N[C@@H](CCC(N)=O)C(=O)O [Ala-Gln, alanyl-glutamine] (H-Ala-Gln-OH)
- cell migration compared to control ([2]; 6 hours, 8 hours, and 24 hours after the scratch): significantly enhanced cell migration
- cell migration increase related to control ([2]; 8 hours after the scratch): 107%
- cell migration increase related to control ([2]; 24 hours after the scratch): 173%
- enhancement of cell migration, more than glutamine ([2]; after 6 hours): 46%
- enhancement of cell migration, more than glutamine ([2]; after 8 hours): 55%
- drive of salt and water absorption [3]: comparable to, if not better, than glucose
- patients improved (diarrhea frequency and consistency) [4]: 89%
- number of patients whose AZT levels did not improve (of eight) [1, 11]: 1
- number of patients whose AZT levels did not improve (of eight) ([1]; low dose Ala-Gln): 3
- number of patients with an increase in their D4T levels ([1]; high dose Ala-Gln): 3
- number of patients who did not increase their D4T levels [1, 12]: 1
- number of patients who did not increase their D4T levels ([1]; low dose Ala-Gln): 2
- number of patients with an increase in their D4T levels ([1]; low dose Ala-Gln): 3
- number of patients whose 3TC levels did not improve [1, 12]: none
- number of patients whose 3TC levels improved with therapy [1, 12]: 2
- number of patients whose 3TC levels did not improve ([1]; low dose Ala-Gln): 3
- number of patients whose 3TC levels improved with therapy ([1]; low dose Ala-Gln): 4
- drug levels improved, all ARV drugs including NNRTI and PI [1, 13]: 63%
- mean percent improvement in antiretroviral drug levels [1, 14]: 113%
- peak paired NRTI levels improved [1, 14]: 75%
- drug levels improved, all ARV drugs including NNRTI and PI [1, 15]: 50%
- mean percent improvement in antiretroviral drug levels [1, 15]: 8%
- peak paired NRTI levels improved [1, 15]: 55%
- stability in acidic water solutions [5]: much more stable

Structure (SMILES): NC(=O)CC[C@H](N)C(=O)O [Gln, glutamine]
- number of patients who did not increase their D4T levels [1, 12]: 3
- number of patients whose 3TC levels did not improve [1, 12]: 2
- number of patients whose 3TC levels improved with therapy [1, 12]: 2
- drug levels improved, all ARV drugs including NNRTI and PI [1, 13]: 57%
- mean percent improvement in antiretroviral drug levels [1, 14]: 14%
- peak paired NRTI levels improved [1, 14]: 64.3%
- intestinal permeability ([6]; 4 g/day): less worsening
- absorption of mannitol ([6]; 8 g/day): improved
- intestinal permeability ([6]; 8 g/day): stabilization

Structure (SMILES): O=c1[nH]cnc2c1ncn2[C@H]1CC[C@@H](CO)O1 [ddI, didanosine, reference compound]
- concentration at 2 h [1, 8]: 737 ± 226 ng/mL
- concentration at 2 h [1, 9]: 397 ± 151 ng/mL
- patients with drug levels below the expected range, in words [1, 10]: All

Structure (SMILES): O=C1Nc2ccc(Cl)cc2[C@@](C#CC2CC2)(C(F)(F)F)O1 [efavirenz, reference compound]
- patients with drug levels below the expected range (low drug levels) [1, 10]: 85%

Structure (SMILES): NCC(=O)O [glycine, reference compound]
- patients improved (diarrhea frequency and consistency) [4]: 38%
- number of patients whose AZT levels did not improve (of eight) [1, 11]: half
- number of patients who did not increase their D4T levels [1, 12]: 2
- number of patients whose 3TC levels did not improve [1, 12]: 3
- number of patients whose 3TC levels improved with therapy [1, 12]: 2
- drug levels improved, all ARV drugs including NNRTI and PI [1, 13]: 20%
- mean percent improvement in antiretroviral drug levels [1, 14]: −32%
- peak paired NRTI levels improved [1, 14]: 15.4%

Structure (SMILES): Cc1cn([C@H]2C=C[C@@H](CO)O2)c(=O)[nH]c1=O [stavudine, reference compound]
- patients with drug levels below the expected range (low drug levels) ([1]; human, in vivo, 2 h): 20%
- number of patients whose level of this ARV drug improved with therapy ([1]; in vivo): seven

Results, then the compound that gave them:

- number of patients whose level of this ARV drug improved with therapy [1, 7]: 10
- concentration at 2 h [1, 8]: 2810 ng/mL
- concentration at 2 h [1, 9]: 1500 ng/mL
- patients with drug levels below the expected range, in words [1, 10]: All
Structure (SMILES): Nc1ccn([C@@H]2CS[C@H](CO)O2)c(=O)n1 [3TC, lamivudine, reference compound]

- patients with drug levels below the expected range (low drug levels) [1, 10]: 44%
Structure (SMILES): Cc1c(O)cccc1C(=O)N[C@@H](CSc1ccccc1)[C@H](O)CN1C[C@H]2CCCC[C@H]2C[C@H]1C(=O)NC(C)(C)C [nelfinavir, reference compound]

- patients with drug levels below the expected range, in words [1, 10]: All
Structure (SMILES): CC(C)c1nc(CN(C)C(=O)N[C@H](C(=O)N[C@@H](Cc2ccccc2)C[C@H](O)[C@H](Cc2ccccc2)NC(=O)OCc2cncs2)C(C)C)cs1 [ritonavir, reference compound]

- patients with drug levels below the expected range, in words ([1]; in vivo): All
Structure (SMILES): CC(C)(C)NC(=O)[C@@H]1C[C@@H]2CCCC[C@@H]2CN1C[C@@H](O)[C@H](Cc1ccccc1)NC(=O)[C@H](CC(N)=O)NC(=O)c1ccc2ccccc2n1 [saquinavir, reference compound]
